Test results as given in the CheMixHub viscosity set.
Where “and” joins values, the source holds several entries; their conditions need not be identical. Equal values may be shown once.

Columns and labels:
[1] = xn = mol fraction of the nth substance listed

CCCCCCCCCCCCCC(=O)OC
Conditions	viscosity [mPa·s]
323.15 K, 100 kPa	2.301

CC(C)CO
Conditions	viscosity
293.15 K, 101 kPa	4.02 mPa·s and 4.009 mPa·s
293.15 K, 101.33 kPa	4.008 mPa·s and 2.75 mPa·s
297 K, 101 kPa	3.569 mPa·s
298.15 K, 101.3 kPa	3.247 mPa·s and 3.256 mPa·s
298.15 K, 101.33 kPa	3.537 mPa·s and 3.41 mPa·s and 3.41 mPa·s
303 K, 101 kPa	2.943 mPa·s
303 K, 101.33 kPa	2.58 mPa·s
303.15 K, 100 kPa	2.938 mPa·s and 2.781 mPa·s
303.15 K, 101.3 kPa	2.745 mPa·s and 2.743 mPa·s and 2.842 mPa·s
303.15 K, 101.33 kPa	2.54 mPa·s and 2.982 mPa·s and 2.1 mPa·s
308 K, 101 kPa	2.261 mPa·s
308.15 K, 100 kPa	2.487 mPa·s and 2.231 mPa·s
308.15 K, 101.33 kPa	2.433 mPa·s
313 K, 101 kPa	2.169 mPa·s
313.15 K, 100 kPa	2.174 mPa·s
313.15 K, 101 kPa	2.17 mPa·s and 2.138 mPa·s and 1.96 mPa·s
313.15 K, 101.3 kPa	2.08 mPa·s
313.15 K, 101.33 kPa	2.186 mPa·s and 1.65 mPa·s
318.15 K, 101 kPa	1.751 mPa·s and 1.834 mPa·s
318.15 K, 101.33 kPa	1.804 mPa·s
323 K, 101 kPa	1.632 mPa·s
323.15 K, 100 kPa	1.637 mPa·s
323.15 K, 101.33 kPa	1.663 mPa·s

CC1CCCO1 (stereo not drawn)
298.15 K
Conditions	viscosity [mPa·s]
101 kPa	0.463
101.33 kPa	0.4753

CC(=O)OC(C)(C)C
101 kPa
Conditions	viscosity [mPa·s]
298.15 K	0.683
308.15 K	0.596

CCOC(=O)CC
Conditions	viscosity [mPa·s]
303.15 K, 101 kPa	0.4833

CCCC=O
Conditions	viscosity [mPa·s]
298.1 K, 101 kPa	0.403

O=C([O-])CC(O)(CC(=O)[O-])C(=O)[O-].[NH3+]CCO.[NH3+]CCO.[NH3+]CCO
101 kPa
Conditions	viscosity [mPa·s]
293.15 K	183.9
303.15 K	113.8
313.15 K	67.2
323.15 K	37.38

Cc1ccccc1O
viscosity
Conditions	293.15 K	298.15 K	308.15 K	313.15 K	318.15 K	323.15 K
101 kPa	9.56 mPa·s	7.607 mPa·s and 7.608 mPa·s	–	4.312 mPa·s and 4.238 mPa·s and 4.1 mPa·s	3.506 mPa·s and 2.215 mPa·s	–
101.3 kPa	–	–	–	4.243 mPa·s	–	3.02 mPa·s
101.33 kPa	–	7.493 mPa·s	4.853 mPa·s	–	3.359 mPa·s	2.83 mPa·s

CC(C)(C)c1ccccc1
viscosity [mPa·s]
Conditions	293.15 K	298.15 K	303.15 K	308.15 K	313.15 K	318.15 K	323.15 K
100 kPa	–	1.118	–	0.97	–	0.853	–
102 kPa	1.13	–	0.982	–	0.854	–	0.751

CCCCCCCC[P+](CC)(CC)CC.O=[N+]([O-])c1cnc[n-]1
100 kPa
Conditions	viscosity [mPa·s]
293.15 K	398
298.15 K	286
303.15 K	212
308.15 K	160
313.15 K	124
318.15 K	98
323.15 K	78

C=CC(=O)OC
viscosity
Conditions	293.15 K	298.15 K	303.15 K	308.15 K	313.15 K	318.15 K
100 kPa	0.5038 mPa·s	0.4602 mPa·s	0.435 mPa·s and 0.4197 mPa·s	0.415 mPa·s and 0.3856 mPa·s	0.396 mPa·s and 0.355 mPa·s	0.3276 mPa·s
101 kPa	0.5038 mPa·s and 0.492 mPa·s and 0.502 mPa·s	–	–	–	–	0.3276 mPa·s and 0.375 mPa·s and 0.334 mPa·s

CN(C)CCO
viscosity
Conditions	293.15 K	298.15 K	303.15 K	308.15 K	313.15 K	318.15 K	323.15 K
101 kPa	4.27 mPa·s	3.78 mPa·s	3.24 mPa·s and 2.835 mPa·s	2.91 mPa·s and 2.485 mPa·s	2.53 mPa·s and 2.186 mPa·s	2.27 mPa·s and 1.938 mPa·s	2.04 mPa·s and 1.723 mPa·s
101.3 kPa	–	–	2.419 mPa·s	–	2.023 mPa·s	–	1.734 mPa·s

CCCCCOC(=O)CCC
101 kPa
Conditions	viscosity [mPa·s]
298.15 K	1.07
313.15 K	0.86

C1CCC2=[NH+]CCCN2CC1.c1nc[n-]n1
Conditions	viscosity [mPa·s]
303.15 K, 100 kPa	1356

C=CC(=O)OCCCC
viscosity
Conditions	293.15 K	298.15 K	303.15 K	308.15 K	313.15 K	318.15 K
100 kPa	0.8996 mPa·s	0.8385 mPa·s	0.782 mPa·s	0.7306 mPa·s	0.6833 mPa·s	0.6387 mPa·s
101 kPa	0.8996 mPa·s and 0.868 mPa·s	–	0.782 mPa·s and 0.751 mPa·s and 0.781 mPa·s	–	0.6833 mPa·s and 0.658 mPa·s and 0.684 mPa·s	0.6387 mPa·s and 0.618 mPa·s
101.33 kPa	0.8763 mPa·s	–	0.7568 mPa·s	–	0.6609 mPa·s	–

CCCCCC
viscosity
Conditions	293.15 K	298 K	303 K	303.15 K	308.15 K	313 K	313.15 K	318.15 K	323 K	323.15 K
100 kPa	–	–	–	0.2941 mPa·s	–	–	0.259 mPa·s and 0.26 mPa·s and 0.257 mPa·s	–	–	0.2345 mPa·s and 0.231 mPa·s
101 kPa	0.31 mPa·s and 0.3119 mPa·s	0.31 mPa·s	0.2673 mPa·s	–	0.268 mPa·s and 0.265 mPa·s	0.2482 mPa·s	–	0.3 mPa·s and 0.245 mPa·s	0.2285 mPa·s	0.2333 mPa·s and 0.235 mPa·s
101.3 kPa	–	–	–	0.2776 mPa·s and 0.286 mPa·s and 0.294 mPa·s	–	–	0.274 mPa·s	–	–	0.251 mPa·s
101.33 kPa	0.31 mPa·s	–	0.273 mPa·s and 0.2865 mPa·s	–	–	0.247 mPa·s	0.2391 mPa·s and 0.257 mPa·s and 0.257 mPa·s	0.247 mPa·s	0.226 mPa·s	0.2524 mPa·s

CCCCCOC(C)=O
viscosity
Conditions	293.15 K	303.15 K	313.15 K	323.15 K
101 kPa	–	–	0.663 mPa·s	0.589 mPa·s
101.3 kPa	–	0.7522 mPa·s and 0.7522 mPa·s	–	–
101.33 kPa	0.931 mPa·s	0.805 mPa·s	0.676 mPa·s	0.552 mPa·s

O=C1OCCO1
viscosity
Conditions	298.15 K	313.15 K	323.15 K
100 kPa	–	1.81 mPa·s and 1.917 mPa·s	1.56 mPa·s
101.3 kPa	2.263 mPa·s	1.879 mPa·s	–
101.33 kPa	–	1.93 mPa·s	–

CCC[N+]1(C)CCCCC1.O=S(=O)([N-]S(=O)(=O)C(F)(F)F)C(F)(F)F
101.3 kPa
Conditions	viscosity [mPa·s]
293.15 K	199
298.15 K	147
303.15 K	112
308.15 K	86.6
313.15 K	68.5
318.15 K	55.1
323.15 K	45.1

CCn1cc[n+](C)c1.O=S(=O)([O-])C(F)(F)F
101 kPa
Conditions	viscosity
293.15 K	48.6 mPa·s
298.15 K	43.8 mPa·s and 40.44 mPa·s
303.15 K	36.7 mPa·s and 34.02 mPa·s
308.15 K	32.28 mPa·s
313.15 K	26.6 mPa·s and 24.89 mPa·s
318.15 K	21.55 mPa·s
323.15 K	18.64 mPa·s

ClCC(Cl)Cl
viscosity [mPa·s]
Conditions	298.15 K	308.15 K	313.15 K
100 kPa	–	0.953	0.887
101 kPa	1.061	–	–

CCCCCCCCCCCCc1ccccc1
102 kPa
Conditions	viscosity [mPa·s]
293.15 K	5.47
303.15 K	4.21
313.15 K	3.33
323.15 K	2.71

CCCCCC + CCO
[1], 298.15 K
Conditions	viscosity [mPa·s]
100 kPa, x1 = 0.0432	0.9721
100 kPa, x1 = 0.1024	0.848
100 kPa, x1 = 0.1981	0.702
100 kPa, x1 = 0.3027	0.5885
100 kPa, x1 = 0.4066	0.5026
100 kPa, x1 = 0.5031	0.439
100 kPa, x1 = 0.5999	0.3881
100 kPa, x1 = 0.7007	0.3479
100 kPa, x1 = 0.8026	0.3191
100 kPa, x1 = 0.8955	0.3025
100 kPa, x1 = 0.971	0.2965
101 kPa, x1 = 0.0149	1.046
101 kPa, x2 = 0.1035	0.3031
101 kPa, x2 = 0.1286	0.306
101 kPa, x2 = 0.2846	0.3322
101 kPa, x2 = 0.3428	0.3666
101 kPa, x2 = 0.4373	0.4133
101 kPa, x2 = 0.4727	0.4249
101 kPa, x2 = 0.533	0.4651
101 kPa, x2 = 0.5802	0.4994
101 kPa, x2 = 0.6757	0.5717
101 kPa, x2 = 0.7394	0.6511
101 kPa, x2 = 0.8689	0.8184
101 kPa, x2 = 0.8995	0.8715
101 kPa, x2 = 0.9793	1.033
101.33 kPa, x2 = 0.0569	0.315
101.33 kPa, x2 = 0.1499	0.325
101.33 kPa, x2 = 0.2731	0.363
101.33 kPa, x2 = 0.439	0.438
101.33 kPa, x2 = 0.5984	0.528
101.33 kPa, x2 = 0.7241	0.632
101.33 kPa, x2 = 0.8282	0.757
101.33 kPa, x2 = 0.9076	0.895
101.33 kPa, x2 = 0.9673	1.022

C1CNCCN1.C1CNCCN1.C1CNCCN1.O=C(O)CC(O)(CC(=O)O)C(=O)O.O=C(O)CC(O)(CC(=O)O)C(=O)O + O
viscosity [mPa·s], [1], 101.3 kPa
Conditions	293.15 K	303.15 K	313.15 K
x1 = 0.000319	1.035	0.826	0.679
x1 = 0.000781	1.073	0.857	0.708
x1 = 0.000911	1.086	0.865	0.716
x1 = 0.00105	1.101	0.877	0.725
x1 = 0.00119	1.115	0.888	0.733
x1 = 0.00134	1.132	0.901	0.743
x1 = 0.00149	1.148	0.914	0.753
x1 = 0.00166	1.166	0.928	0.763
x1 = 0.00179	1.179	0.939	0.771
x1 = 0.001875	1.188	0.945	0.775
x1 = 0.002838	1.303	1.034	0.834

CCCCCOC(C)=O + CC(=O)c1ccccc1
[1], 298.15 K, 101 kPa
Conditions	viscosity [mPa·s]
x2 = 0.0465	0.802
x2 = 0.0891	0.8174

CC(C)(C)c1ccccc1 + c1ccccc1
[1], 303.15 K, 101.3 kPa
Conditions	viscosity [mPa·s]
x2 = 0.0424	0.9763
x2 = 0.1376	0.9194
x2 = 0.2605	0.8507
x2 = 0.4018	0.7791
x2 = 0.5266	0.725
x2 = 0.682	0.6637
x2 = 0.7952	0.6265
x2 = 0.865	0.6036
x2 = 0.9376	0.5792

CCCCCOC(C)=O + C1COCCO1
[1], 303.15 K, 101.3 kPa
Conditions	viscosity [mPa·s]
x2 = 0.0981	0.7721
x2 = 0.2981	0.8134
x2 = 0.505	0.8719
x2 = 0.7018	0.9452
x2 = 0.9003	1.037

CC(C)CO + CN1CCCC1=O
[1], 298.15 K, 101 kPa
Conditions	viscosity [mPa·s]
x2 = 0.0577	2.895
x2 = 0.1202	2.548
x2 = 0.1587	2.399
x2 = 0.2004	2.276
x2 = 0.2421	2.18
x2 = 0.3117	2.053
x2 = 0.368	1.982
x2 = 0.4264	1.931
x2 = 0.4568	1.896
x2 = 0.5217	1.854
x2 = 0.5616	1.83
x2 = 0.6113	1.82
x2 = 0.6662	1.796
x2 = 0.711	1.776
x2 = 0.7618	1.752
x2 = 0.8039	1.747
x2 = 0.8557	1.717
x2 = 0.8982	1.704
x2 = 0.9723	1.677
